{
  "source": "ChEMBL document CHEMBL1147033",
  "about": "“Novel selective androgen receptor modulators: SAR studies on 6-bisalkylamino-2-quinolinones” (Bioorg Med Chem Lett, 2007)",
  "key": {"Androgen receptor [1]": {"biological_target": "T1, Androgen receptor (Homo sapiens, UniProt P10275)", "T1 sequence (P10275 whole entry)": "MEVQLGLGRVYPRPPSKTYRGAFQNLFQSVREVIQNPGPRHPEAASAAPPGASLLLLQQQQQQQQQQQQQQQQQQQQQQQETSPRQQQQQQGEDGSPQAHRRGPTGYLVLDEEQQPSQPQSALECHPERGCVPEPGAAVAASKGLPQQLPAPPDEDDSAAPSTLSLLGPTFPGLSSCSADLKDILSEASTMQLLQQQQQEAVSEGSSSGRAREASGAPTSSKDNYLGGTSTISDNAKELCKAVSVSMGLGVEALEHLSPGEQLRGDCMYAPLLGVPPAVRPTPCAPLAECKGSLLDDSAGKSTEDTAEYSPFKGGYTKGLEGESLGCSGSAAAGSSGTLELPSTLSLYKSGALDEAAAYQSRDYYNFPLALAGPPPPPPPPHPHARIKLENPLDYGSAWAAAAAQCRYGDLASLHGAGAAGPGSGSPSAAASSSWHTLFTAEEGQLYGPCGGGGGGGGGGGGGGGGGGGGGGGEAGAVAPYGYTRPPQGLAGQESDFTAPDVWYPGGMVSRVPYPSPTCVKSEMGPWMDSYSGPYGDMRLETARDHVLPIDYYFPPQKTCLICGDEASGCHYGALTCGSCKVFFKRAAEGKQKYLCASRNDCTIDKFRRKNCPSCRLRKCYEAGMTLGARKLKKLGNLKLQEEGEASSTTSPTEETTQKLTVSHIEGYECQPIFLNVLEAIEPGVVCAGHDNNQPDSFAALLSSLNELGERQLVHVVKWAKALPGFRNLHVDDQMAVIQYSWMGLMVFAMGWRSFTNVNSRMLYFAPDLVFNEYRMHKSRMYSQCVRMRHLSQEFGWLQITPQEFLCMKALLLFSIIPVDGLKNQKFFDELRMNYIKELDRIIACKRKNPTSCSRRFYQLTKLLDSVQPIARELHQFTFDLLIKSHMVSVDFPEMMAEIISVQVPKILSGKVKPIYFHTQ", "description": "Binding affinity to human AR"}, "Androgen receptor [2]": {"biological_target": "T1, Androgen receptor", "remark": "listed apart in the source", "description": "Antagonist activity at human AR"}, "Androgen receptor [3]": {"biological_target": "T1, Androgen receptor", "remark": "listed apart in the source", "description": "Agonist activity at human AR"}},
  "data": [
    {"smiles": "O=c1cc(C(F)(F)F)c2cc(N(Cc3ccccc3)CC(F)(F)F)ccc2[nH]1", "values": [
      {"measurement": "Ki", "setting": "Androgen receptor [1]", "value": 79, "unit": "nM"},
      {"measurement": "IC50", "setting": "Androgen receptor [2]", "value": "> 10000", "unit": "nM"},
      {"measurement": "EC50", "setting": "Androgen receptor [3]", "value": 27, "unit": "nM"}
    ]}
  ]
}
